Laboratory results as given in patent publication US5543415A, “Antidepressants” (Kyowa Hakko Kogyo Co., Ltd., priority 1992, dated 1996).

These compounds were tested on ddY-strain male mice (assay: Acute Toxicity Test (minimum lethal dose, oral)). Details: seven days after administration.
Assay type: in vivo
Protocol: Test compounds were orally administered to groups of ddY-strain male mice weighing 20±1 g, each group consisting of three mice. Seven days after the administration, minimum lethal dose (MLD) of each compound was determined by observing the mortality.

Question: Which “MLD (minimum lethal dose)” value does the source give for `CCCn1c(=O)c2[nH]c(/C=C/c3cccc(OC)c3OC)nc2n(CCC)c1=O` [Compound 29, (E)-8-(2,3-Dimethoxystyryl)-1,3-dipropylxanthine] here?
Answer: > 100 mg/kg

Question: With `CCn1c(=O)c2c(nc(/C=C/c3ccc(C(F)(F)F)cc3)n2C)n(CC)c1=O` [Compound 136, (E)-1,3-Diethyl-7-methyl-8-(4-trifluoromethylstyryl)xanthine] as the compound, how does the “MLD (minimum lethal dose)” value read?
Answer: > 300 mg/kg

Question: Which “MLD (minimum lethal dose)” value does the source give for `Cn1c(=O)c2c(nc(/C=C/c3ccc4c(c3)OCO4)n2C)n(C)c1=O` [Compound 96, (E)-8-(3,4-Methylenedioxystyryl)caffeine] here?
Answer: > 300 mg/kg

Question: Which “MLD (minimum lethal dose)” value does the source give for `CCn1c(=O)c2[nH]c(/C=C/c3ccc(C(F)(F)F)cc3)nc2n(CC)c1=O` [Compound 135, (E)-1,3-Diethyl-8-(4-trifluoromethylstyryl)xanthine] here?
Answer: > 100 mg/kg

Question: For `CCn1c(=O)c2[nH]c(/C=C/c3ccc(OCOC)cc3)nc2n(CC)c1=O` [Compound 145, (E)-1,3-Diethyl-8-(4-methoxymethoxystyryl)xanthine], which “MLD (minimum lethal dose)” value is on record?
Answer: > 100 mg/kg

Question: For `CCCCn1c(=O)c2nc(/C=C/c3cc(OC)c(OC)c(OC)c3)[nH]c2n(CCCC)c1=O` [Compound 8, (E)-1,3-Dibutyl-8-(3,4,5-trimethoxystyryl)xanthine], which “MLD (minimum lethal dose)” value is on record?
Answer: > 100 mg/kg

Question: How did the “MLD (minimum lethal dose)” value turn out when `Cn1c(=O)c2[nH]c(/C=C/c3ccc4c(c3)OCO4)nc2n(C)c1=O` [Compound 95, (E)-8-(3,4-Methylenedioxystyryl)theophylline] was run?
Answer: > 300 mg/kg

Question: For `COc1cc(/C=C/c2nc3c(=O)n(C)c(=O)n(C)c3[nH]2)cc(OC)c1OC` [Compound 11, (E)-8-(3,4,5-trimethoxystyryl)theophylline], which “MLD (minimum lethal dose)” value is on record?
Answer: > 300 mg/kg

Question: With `C=CCn1c(=O)c2[nH]c(/C=C/c3ccc(OC)c(OC)c3)nc2n(CC=C)c1=O` [Compound 69, (E)-1,3-Diallyl-8-(3,4-dimethoxystyryl)xanthine] as the compound, how does the “MLD (minimum lethal dose)” value read?
Answer: > 100 mg/kg

Question: With `COc1cc(C)c(/C=C/c2nc3c(c(=O)n(C)c(=O)n3C)n2C)cc1C` [Compound 102, (E)-8-(4-Methoxy-2,5-dimethylstyryl)caffeine] as the compound, how does the “MLD (minimum lethal dose)” value read?
Answer: > 100 mg/kg

Question: Which “MLD (minimum lethal dose)” value does the source give for `CCn1c(=O)c2[nH]c(/C=C/c3cccc(F)c3)nc2n(CC)c1=O` [Compound 127, (E)-1,3-Diethyl-8-(3-fluorostyryl)xanthine] here?
Answer: > 100 mg/kg

Question: Which “MLD (minimum lethal dose)” value does the source give for `COc1ccc(/C=C/c2nc3c([nH]2)c(=O)n(C)c(=O)n3C)c(Cl)c1OC` [Compound 107, (E)-8-(2-Chloro-3,4-dimethoxystyryl)theophylline] here?
Answer: > 100 mg/kg

Question: Which “MLD (minimum lethal dose)” value does the source give for `CCn1c(=O)c2[nH]c(/C=C/c3cc4c(cc3Br)OCO4)nc2n(CC)c1=O` [Compound 165, (E)-8-(2-Bromo-4,5-methylenedioxystyryl)-1,3-diethylxanthine] here?
Answer: > 100 mg/kg

Question: Which “MLD (minimum lethal dose)” value does the source give for `CCn1c(=O)c2[nH]c(/C=C/c3ccc(-c4ccccc4)cc3)nc2n(CC)c1=O` [Compound 170, (E)-1,3-Diethyl-8-(4-phenylstyryl)xanthine] here?
Answer: > 100 mg/kg

Question: `CCn1c(=O)c2c(nc(/C=C/c3cc(C(F)(F)F)cc(C(F)(F)F)c3)n2C)n(CC)c1=O` [Compound 154, (E)-8-[3,5-Bis (trifluoromethyl)styryl]-1,3-diethyl-7-methylxanthine] was tested. Which “MLD (minimum lethal dose)” value did it give?
Answer: > 100 mg/kg

Question: For `CCn1c(=O)c2c(nc(/C=C/c3cccc(OC)c3)n2C)n(CC)c1=O` [Compound 140, (E)-1,3-Diethyl-8-(3-methoxystyryl)-7-methylxanthine], which “MLD (minimum lethal dose)” value is on record?
Answer: > 300 mg/kg

Question: With `CCn1c(=O)c2c(nc(/C=C/c3cc(C)c(OC)cc3C)n2C)n(CC)c1=O` [Compound 84, (E)-1,3-Diethyl-8-(4-methoxy-2,5-dimethylstyryl)-7-methylxanthine] as the compound, how does the “MLD (minimum lethal dose)” value read?
Answer: > 300 mg/kg

Question: With `CCCn1c(=O)c2[nH]c(/C=C/c3ccc(OC)c(C)c3OC)nc2n(CCC)c1=O` [Compound 15, (E)-8-(2,4-Dimethoxy-3-methylstyryl)-1,3-dipropylxanthine] as the compound, how does the “MLD (minimum lethal dose)” value read?
Answer: > 100 mg/kg
